Columns and labels:
[1] = system: MDA-MB-231; assay: Cell proliferation in triple-negative breast cancer cells; type: cell-based, human; settings: MDA-MB-231 triple-negative breast cancer cells
Description: (§1) Cell Growth Assay. Cells were seeded at 1500/well in 96 well plates overnight. One day after seeding, they were treated with indicated doses of compounds. The growth of the cells was evaluated by colorimetric WST-8 assay 4 days after the compound treatment following the instructions of the manufacturer, Cayman Chemical, Ann Arbor, Mich.
(§2) Fulvestrant achieves an Imax value of 43.8%. […] RAD1901, a previously reported SERD molecule^18, achieves an Imax value of 25.7%.

[2] = system: primary human mammary epithelial cells; assay: Cell proliferation in primary human mammary epithelial cells; type: cell-based
Description: as §1, §2

[3] = system: MCF-7 cells; assay: Crystal violet staining experiment in MCF-7 cells; settings: 10 nM, 100 nM and 300 nM, versus raloxifene and fulvestrant
[4] = system: MCF-7 cells; assay: WST-8 cell proliferation assay in MCF-7 cells; type: cell-based, human
Description: Cell Culture. Human breast cancer cell lines MCF-7 (ATCC® HTB-22™) and T47D (ATCC® HTB-133™) were purchased from the American Type Culture Collection (ATCC), Manassas, Va., and maintained and cultured in Dulbecco's Modified Eagle's medium (DMEM) containing 10% fetal bovine serum, 1 unit/ml of penicillin and 1 μg/ml of streptomycin. Cells with 3-8 passages after purchase were used in experiments as indicated.
as §1, §2

[5] = system: mRNA levels of pGR and GREB1; assay: qRT-PCR of ER-regulated genes in MCF-7 cells
[6] = target: T1, ERα (Homo sapiens, UniProt P03372); assay: Mechanism of ER degradation: pretreatment with VHL ligand, ER ligand or proteasome inhibitor, Western blotting in MCF-7 cells; type: cell-based; design: host or cells: MCF-7; settings: 32 at 30 nM 4 h
T1 sequence (P03372 1-595): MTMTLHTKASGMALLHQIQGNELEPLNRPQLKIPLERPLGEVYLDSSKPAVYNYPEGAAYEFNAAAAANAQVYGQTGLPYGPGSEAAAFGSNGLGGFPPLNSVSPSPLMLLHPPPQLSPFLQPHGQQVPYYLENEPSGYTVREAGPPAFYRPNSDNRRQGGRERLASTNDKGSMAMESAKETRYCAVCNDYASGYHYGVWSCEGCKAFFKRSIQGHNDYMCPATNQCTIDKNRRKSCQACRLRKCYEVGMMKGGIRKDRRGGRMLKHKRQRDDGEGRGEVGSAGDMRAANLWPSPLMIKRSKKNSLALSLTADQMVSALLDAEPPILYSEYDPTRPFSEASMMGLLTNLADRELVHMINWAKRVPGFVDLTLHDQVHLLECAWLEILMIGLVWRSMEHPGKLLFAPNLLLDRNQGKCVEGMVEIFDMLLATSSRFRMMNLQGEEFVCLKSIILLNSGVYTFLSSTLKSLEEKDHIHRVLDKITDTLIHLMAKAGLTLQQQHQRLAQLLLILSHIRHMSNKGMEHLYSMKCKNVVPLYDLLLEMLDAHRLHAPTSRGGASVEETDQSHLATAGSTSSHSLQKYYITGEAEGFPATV
Description: (§3) Then whole-cell lysates were analyzed by Western blotting.
as §3
Western Blot Analysis. […] Cells treated with indicated compounds were lysed in Radioimmunoprecipitation Assay Protein Lysis and Extraction Buffer (25 mmol/L Tris.HCl, pH 7.6, 150 mmol/L NaCl, 1% Nonidet P-40, 1% sodium deoxycholate, and 0.1% sodium dodecyl sulfate) containing proteinase inhibitor cocktail (Roche Diagnostics, Mannheim, Germany). After determination of protein concentration by BCA assay (Fisher Scientific, Pittsburgh, Pa.), equal amounts of total protein were electrophoresed through 10% SDS-polyacrylamide gels. The separated protein bands were transferred onto PVDF membranes (GE Healthcare Life Sciences, Marlborough, Mass.) and blotted against different antibodies, as indicated. The human estrogen receptor a antibodies (AB16460) were purchased from Abeam, Inc., Cambridge, Mass. The membranes were reblotted with horseradish peroxidase-conjugated anti-glyceraldehyde-3-phosphate dehydrogenase antibody (G9295) from Sigma-Aldrich Corporation, St. Louis, Mo. The blots were scanned and the band intensities were quantified using GelQuant.NET software as described in biochemlabsolutions.com. The relative mean intensity of target proteins was expressed after normalization to the intensity of glyceraldehyde-3-phosphate dehydrogenase bands from individual repeats.

[7] = target: T1, ERα; assay: ER degradation by Western blotting in T47D cells; type: cell-based; design: Dmax: dose or concentration left out as unconfirmed
Description: FIG. 8 is an image showing the ERα degradation dose-response Western blotting for compound 32 at 4 h in T47D cells. […] Cell Culture. Human breast cancer cell lines MCF-7 (ATCC® HTB-22TM) and T47D (ATCC® HTB-133TM) were purchased from the American Type Culture Collection (ATCC), Manassas, Va., and maintained and cultured in Dulbecco's Modified Eagle's medium (DMEM) containing 10% fetal bovine serum, 1 unit/ml of penicillin and 1 μg/ml of streptomycin. Cells with 3-8 passages after purchase were used in experiments as indicated. Western Blot Analysis. Western blot analysis was performed essentially as described previously (Hu et al, 2015, PMID: 26358219). Cells treated with indicated compounds were lysed in Radioimmunoprecipitation Assay Protein Lysis and Extraction Buffer (25 mmol/L Tris.HCl, pH 7.6, 150 mmol/L NaCl, 1% Nonidet P-40, 1% sodium deoxycholate, and 0.1% sodium dodecyl sulfate) containing proteinase inhibitor cocktail (Roche Diagnostics, Mannheim, Germany). After determination of protein concentration by BCA assay (Fisher Scientific, Pittsburgh, Pa.), equal amounts of total protein were electrophoresed through 10% SDS-polyacrylamide gels. The separated protein bands were transferred onto PVDF membranes (GE Healthcare Life Sciences, Marlborough, Mass.) and blotted against different antibodies, as indicated. The human estrogen receptor a antibodies (AB16460) were purchased from Abeam, Inc., Cambridge, Mass. The membranes were reblotted with horseradish peroxidase-conjugated anti-glyceraldehyde-3-phosphate dehydrogenase antibody ([…]) from Sigma-Aldrich Corporation, St. Louis, Mo. The blots were scanned and the band intensities were quantified using GelQuant.NET software as described in biochemlabsolutions.com. The relative mean intensity of target proteins was expressed after normalization to the intensity of glyceraldehyde-3-phosphate dehydrogenase bands from individual repeats.

CCN(CCCCCOCC(=O)N[C@H](C(=O)N1C[C@H](O)C[C@H]1C(=O)N[C@@H](C)c1ccc(-c2scnc2C)cc1)C(C)(C)C)CCOc1ccc(C(=O)c2c(-c3ccc(O)cc3)sc3cc(O)ccc23)cc1 [compound 32, (2S,4R)-1-((S)-2-(2-((5-(Ethyl(2-(4-(6-hydroxy-2-(4-hydroxyphenyl)benzo[b]thiophene-3-carbonyl)phenoxy)ethyl)amino)pentyl)oxy)acetamido)-3,3-dimethylbutanoyl)-4-hydroxy-N—((S)-1-(4-(4-methylthiazol-5-yl)phenyl)ethyl)pyrrolidine-2-carboxamide]
cell proliferation inhibition [1]: does not exhibit the cell proliferation inhibition effects | cell proliferation inhibition [2]: does not exhibit the cell proliferation inhibition effects | reduction of cell proliferation (crystal violet staining) [3]: reduced cell proliferation more significantly than raloxifene or fulvestrant | IC50 ([4]; Homo sapiens, MCF7, 96 h, read-out: IC50, inhibition of cell proliferation): 0.77 nM | maximum inhibition (Imax) ([4]; MCF-7 cells, WST-8, 4 days): 57.5% | suppression of pGR and GREB1 expression compared with fulvestrant ([5]; 10 nM and 100 nM): slightly more effective than fulvestrant | suppression of pGR and GREB1 expression compared with raloxifene ([5]; 10 nM and 100 nM): significantly more effective than raloxifene | suppression of expression of pGR and GREB1 ([5]; qRT-PCR): strongly suppressed | blocking of ER degradation by compound 32 with 1 μM VHL ligand 11 ([6]; 1 μM VHL ligand 11 pretreatment 2 h): only slightly | ER degradation induced by compound 32 on addition of carfilzomib ([6]; 1 μM proteasome inhibitor carfilzomib pretreatment 2 h): significantly reduced | ER degradation induced by compound 32 on addition of raloxifene ([6]; 1 μM raloxifene pretreatment 2 h): significantly reduced | blocking of ER degradation by compound 32 with 5 μM or 10 μM VHL ligand 11 ([6]; 5 μM or 10 μM of 11 pretreatment 2 h): completely blocked | hook effect ([7]; T47D cells, 1 μM): demonstrates a hook effect | DC50 ([7]; T47D cells, 4 h): 0.43 nM | Dmax ([7]; T47D, read-out: maximum degradation): > 95%

Source: patent publication US20220079931A1, “ESTROGEN RECEPTOR PROTEIN DEGRADERS” (THE REGENTS OF THE UNIVERSITY OF MICHIGAN, priority 2019, published 2022)
